Measurements taken from publication PMC10410440, “Preclinical PK investigation of a novel IDO1/TDO dual inhibitor—SHR9146 in mouse plasma and tissues by LC-MS/MS” (Frontiers in Oncology, 2023).
Where “and” joins values, the source holds several entries; their conditions need not be identical. Identical values can stand only once. Entries after “also recorded” stand apart in the source; their conditions may differ. Like-named read-outs stand apart in the source and are kept apart here.

Experiment: Plasma pharmacokinetics of SHR9146 in mice (LC-MS/MS, non-compartmental analysis)
Assay type: in vivo, ICR mice
Settings: for AUC(0-t): read-out: AUC0-t; for half-life: read-out: t1/2 (converted); for Cmax: read-out: Cmax; for Tmax: read-out: Tmax
Protocol: ICR mice with body weight 16–26 g were supplied by Shanghai Lingchang Biotechnology Co., Ltd. (animal breeding license number SCXK (Shanghai) 2013-0018) and housed at Shanghai Institute of Materia Medica, Chinese Academy of Sciences [animal use license number SYXK (Shanghai) 2015-0027]. The mice used in this study were fasted overnight for 12 h but had free access to water. Food was supplied 4 h post-dose. All experiments in this study were conducted in accordance with the Guidelines for the Care and Use of Laboratory Animals of Shanghai Institute of Materia Medica, Chinese Academy of Sciences.
A total of 30 mice were randomly assigned into five groups with equal numbers, males and females. One group was intravenously administrated with 5 mg/kg SHR9146 dissolved in […] plus 95% saline (adjusted pH to 4.0) under sterile conditions. The remaining four groups were administered respectively with a single dose of 20 , 40, or 80 mg/kg or multiple doses of 20 mg/kg twice daily for 7 days, by oral gavage of SHR9146 dissolved in 0.5% CMC-Na. Blood samples were obtained from the fossa orbitalis vein at 15 and 30 min and 1.0, 2.0, 4.0, 6.0, 8.0, 10.0, and 24.0 h after oral gavage administration. An additional 5-min time point was included for iv injection, as well as the pre-drug administration time points on the fifth, sixth, and seventh days in the multiple-dose group. The blood samples were collected in EDTA K2 anticoagulant blood collection tubes and centrifuged at 1,000 rpm for 5 min at 4°C. The supernatant plasma samples were thus produced.
Briefly as follows, an aliquot of 25-μL plasma or tissue homogenate was spiked with 100 μL of internal standard solution (1 μg/mL for plasma, 0.2 μg/mL for tissue homogenate) and 300 μL of methanol added and vortex mixed for 60 s. The mixture was then centrifuged at 14,000 rpm at 4°C for 5.0 min, and the supernatant was diluted with methanol–water (4:1, v/v) in a ratio of 1:9 for the plasma or 1:1 for the tissue homogenate, and 5 μL of the resulting solution was injected for the LC-MS/MS analysis.
The pharmacokinetic parameters of SHR9146 in mouse plasma were estimated by Phoenix 1.4 software using a non-compartmental model.
The mean concentration–time curves of SHR9146 in mouse plasma after a single oral gavage dose of 20, 40, or 80 mg/kg, or a single intravenous dose of 5 mg/kg, or the 7th-day steady state after twice-daily multiple oral doses of 20 mg/kg are shown in Figure 5 (Table S6).

[1] = female, ICR, mouse, plasma, iv, 5 mg/kg, 5 mg/kg i.v. single dose, female mice, plasma
[2] = female, ICR, mouse, plasma, po, 20 mg/kg, 20 mg/kg i.g. bid, 7 days (7th-day steady state), female mice, plasma
[3] = female, ICR, mouse, plasma, po, 20 mg/kg, 20 mg/kg i.g. single dose, female mice, plasma
[4] = female, ICR, mouse, plasma, po, 40 mg/kg, 40 mg/kg i.g. single dose, female mice, plasma
[5] = female, ICR, mouse, plasma, po, 80 mg/kg, 80 mg/kg i.g. single dose, female mice, plasma
[6] = male, ICR, mouse, plasma, iv, 5 mg/kg, 5 mg/kg i.v. single dose, male mice, plasma
[7] = male, ICR, mouse, plasma, po, 20 mg/kg, 20 mg/kg i.g. bid, 7 days (7th-day steady state), male mice, plasma
[8] = male, ICR, mouse, plasma, po, 20 mg/kg, 20 mg/kg i.g. single dose, male mice, plasma
[9] = male, ICR, mouse, plasma, po, 40 mg/kg, 40 mg/kg i.g. single dose, male mice, plasma
[10] = male, ICR, mouse, plasma, po, 80 mg/kg, 80 mg/kg i.g. single dose, male mice, plasma
[11] = single oral dosing 20 to 80 mg/kg pooled, mouse plasma, n=6

MRT inf (both sexes, ICR, mouse, po, 80 mg/kg i.g. single dose, all mice (Totol, 3 male + 3 female), plasma, read-out: MRT0-∞): 4.6 h
AUC(0-inf) (female, ICR, mouse, plasma, iv, 5 mg/kg, 5 mg/kg i.v. single dose, female mice): 6910 ng·h/mL
AUC(0-t) [1]: 6800 ng·h/mL
half-life [1]: 0.665 h
AUC(0-inf) (female, ICR, mouse, plasma, po, 20 mg/kg, 20 mg/kg i.g. bid, 7 days (7th-day steady state), female mice): 24300 ng·h/mL
AUC(0-t) [2]: 24200 ng·h/mL
Cmax [2]: 10900 ± 737 ng/mL
Tmax [2]: 0.833 ± 0.289 h
half-life [2]: 0.951 h
AUC(0-inf) (female, ICR, mouse, plasma, po, 20 mg/kg, 20 mg/kg i.g. single dose, female mice): 17900 ng·h/mL
AUC(0-t) [3]: 16800 ng·h/mL
Cmax [3]: 9170 ± 4240 ng/mL
Tmax [3]: 0.5 ± 0.433 h
half-life [3]: 0.866 h
AUC(0-t) [4]: 12400 ng·h/mL
Cmax [4]: 9880 ± 3490 ng/mL
Tmax [4]: 1.83 ± 1.89 h
AUC(0-inf) (female, ICR, mouse, plasma, po, 80 mg/kg, 80 mg/kg i.g. single dose, female mice): 65900 ng·h/mL
AUC(0-t) [5]: 64700 ng·h/mL
Cmax [5]: 18700 ± 7300 ng/mL
Tmax [5]: 1.17 ± 0.764 h
half-life [5]: 1.49 h
AUC(0-inf) (male, ICR, mouse, plasma, iv, 5 mg/kg, 5 mg/kg i.v. single dose, male mice): 6950 ng·h/mL
AUC(0-t) [6]: 6730 ng·h/mL
half-life [6]: 0.761 h
AUC(0-inf) (male, ICR, mouse, plasma, po, 20 mg/kg, 20 mg/kg i.g. bid, 7 days (7th-day steady state), male mice): 24400 ng·h/mL
AUC(0-t) [7]: 24300 ng·h/mL
Cmax [7]: 10500 ± 993 ng/mL
Tmax [7]: 0.833 ± 0.289 h
half-life [7]: 1.06 h
AUC(0-inf) (male, ICR, mouse, plasma, po, 20 mg/kg, 20 mg/kg i.g. single dose, male mice): 14600 ng·h/mL
AUC(0-t) [8]: 14400 ng·h/mL
Cmax [8]: 10000 ± 2370 ng/mL
Tmax [8]: 0.417 ± 0.144 h
half-life [8]: 0.531 h
AUC(0-inf) (male, ICR, mouse, plasma, po, 40 mg/kg, 40 mg/kg i.g. single dose, male mice): 33400 ng·h/mL
AUC(0-t) [9]: 31000 ng·h/mL
Cmax [9]: 15000 ± 3240 ng/mL
Tmax [9]: 1.33 ± 0.577 h
half-life [9]: 1.66 h
AUC(0-inf) (male, ICR, mouse, plasma, po, 80 mg/kg, 80 mg/kg i.g. single dose, male mice): 75900 ng·h/mL
AUC(0-t) [10]: 75300 ng·h/mL
Cmax [10]: 15500 ± 6150 ng/mL
Tmax [10]: 1.83 ± 1.89 h
half-life [10]: 3.3 h
Vd, post-oral (oral 20 to 80 mg/kg pooled, mouse plasma, n=6): 3.427 ± 1.617 L/kg
Vd, post-oral [11]: 3.43 ± 1.62 L/kg
SMILES: OCCn1cc(-c2ccc(N3CCC([C@H]4c5c(F)cccc5-c5cncn54)CC3)cc2)cn1 [SHR9146]
dose dependence of oral pharmacokinetics (oral 20 to 80 mg/kg, mice, Cmax and AUC): dose proportionality; also recorded: linear pharmacokinetics characteristics; also recorded: dose-independent kinetics
CL, post-oral [11]: 19.8 ± 0.9 mL/min/kg and 19.769 ± 0.866 mL/min/kg
